Experimental data as given in US20090145840A1, “BLOOD CELL SEPARATION MEMBRANE AND BLOOD RETENTION TOOL USING THE SAME” (ARKRAY, Inc., priority 2003, published 2009).

System: blood cells
Test: Hemolysis of blood cells on blood retention tool (plasma colored red with Hb)
Format: cell-based
Settings: tools of Example 4 / Comparative Example 4; glycine as 5% solution
Experimental: Blood cell separation was carried out using this tool, and the presence or absence of hemolysis was determined. In the following, unless otherwise stated, the concentration (%) of a hemolysis inhibitor in a hemolysis inhibitor solution is represented by a percentage (unit: (w/v) %) of the weight (unit: g) of the hemolysis inhibitor with respect to the volume (100 ml) of a solvent.
Hemolysis inhibitors were dissolved in solvents (distilled water) beforehand to prepare hemolysis inhibitor solutions shown in Table 1 below. […]
On the glass filter surface of each of the thus-obtained blood retention tools, 100 μl of whole blood (hematocrit: 38%) was dropped to cause the separation of blood cells and plasma and the development of the plasma. Then, after a lapse of 2 minutes, the presence or absence of hemolysis of the blood cells was determined. […]
Blood retention tools (Example 3-1 and 3-2) were produced in the same manner as in Example 1, except that the following development porous membranes (a filter paper and a cellulose acetate membrane) and blood cell separation porous membranes (glass filters) were used and valine was used as the hemolysis inhibitors. […] Using these blood retention tools, blood cell separation was carried out and the presence or absence of hemolysis and the development of blood cells were determined in the same manner as in Examples 1 and 2.

For `NCC(=O)O` [Gly, glycine], the hemolysis was “occurrence of hemolysis was observed”.
